From patent US20240156097A1, “AGROCHEMICAL ADJUVANTS FROM STACHYBOTRYS CHARTARUM” (Croda International Plc, priority 2021, published 2024)

How the values were obtained:
[1] = tested on: Botrytis cinerea (ATCC 90479); assay: Adjuvancy: growth inhibition of Botrytis cinerea on agar with fungicide and/or adjuvant (colony diameter); type: cell-based; conditions: for Fold Change in Growth Inhibition: 48 h, 22° C.; for inherent fungicidal activity on their own: adjuvant alone, any of the concentrations tested; for fungicidal activity compared to dimethomorph, prothioconazole, mancozeb, metalaxyl and pyrimethanil alone: in words, adjuvant plus fungicide
[2] = tested on: African green monkey Vero kidney cells (ATCC CCL-81); assay: Cytotoxicity against Vero cells (alamarBlue); type: cell-based; conditions: highest concentration tested (128 μg/mL); 24 hours
Protocol: The cytotoxicity of the phenylspirodrimanes and stachybocin A was assessed in vitro against African green monkey Vero kidney cells (ATCC CCL-81). Cells were cultured in 15 mL of Eagle's minimal essential medium (Sigma) supplemented with 10% (v/v) fetal bovine serum (VWR), […] and 0.1 mg/mL streptomycin in T75 cm^2 cell culture flasks. Cells were incubated for 24 hours at 37° C. in a humidified atmosphere of 5% CO2. Culture medium was refreshed every 2-3 days and cells were not allowed to exceed 80% confluency.
At 80% confluency the cells were counted, diluted and plated into 96 well flat bottom cell culture plates (Corning) at a cell density of 10,000 cells per well in 90 μL of growth medium. The plates were incubated at 37° C. in a humidified atmosphere of 5% CO2 for 24 hours to allow cells to adhere to the plate before treatment. […]
The plates were incubated at 37° C. in a humidified atmosphere of 5% C02 for 24 hours after which alamarBlue (Invitrogen) was added to each well at 10% of the culture volume. Fluorescence was monitored using a Thermo Scientific Varioskan Flash plate reader at 560/12 excitation, 590 nm emission both at time zero and 4 hrs after alamarBlue addition. After subtracting the time zero emission 590 nm measurement from the final reading, the inferred percentage of cell viability relative to the vehicle control wells was calculated.

[3] = adjuvant 12.5 μg/mL + pyraclostrobin 0.1 μg/mL vs pyraclostrobin alone
[4] = adjuvant 12.5 μg/mL + pyraclostrobin 0.2 μg/mL vs pyraclostrobin alone
[5] = adjuvant 12.5 μg/mL + pyraclostrobin 0.4 μg/mL vs pyraclostrobin alone
[6] = adjuvant 12.5 μg/mL + pyraclostrobin 0.8 μg/mL vs pyraclostrobin alone
[7] = adjuvant 12.5 μg/mL + tebuconazole 0.05 μg/mL vs tebuconazole alone
[8] = adjuvant 12.5 μg/mL + tebuconazole 0.10 μg/mL vs tebuconazole alone
[9] = adjuvant 12.5 μg/mL + tebuconazole 0.19 μg/mL vs tebuconazole alone
[10] = adjuvant 12.5 μg/mL + tebuconazole 0.38 μg/mL vs tebuconazole alone
[11] = adjuvant 25 μg/mL + pyraclostrobin 0.1 μg/mL vs pyraclostrobin alone
[12] = adjuvant 25 μg/mL + pyraclostrobin 0.2 μg/mL vs pyraclostrobin alone
[13] = adjuvant 25 μg/mL + pyraclostrobin 0.4 μg/mL vs pyraclostrobin alone
[14] = adjuvant 25 μg/mL + pyraclostrobin 0.8 μg/mL vs pyraclostrobin alone
[15] = adjuvant 25 μg/mL + tebuconazole 0.05 μg/mL vs tebuconazole alone
[16] = adjuvant 25 μg/mL + tebuconazole 0.10 μg/mL vs tebuconazole alone
[17] = adjuvant 25 μg/mL + tebuconazole 0.19 μg/mL vs tebuconazole alone
[18] = adjuvant 25 μg/mL + tebuconazole 0.38 μg/mL vs tebuconazole alone
[19] = adjuvant 50 μg/mL + pyraclostrobin 0.1 μg/mL vs pyraclostrobin alone
[20] = adjuvant 50 μg/mL + pyraclostrobin 0.2 μg/mL vs pyraclostrobin alone
[21] = adjuvant 50 μg/mL + pyraclostrobin 0.4 μg/mL vs pyraclostrobin alone
[22] = adjuvant 50 μg/mL + pyraclostrobin 0.8 μg/mL vs pyraclostrobin alone
[23] = adjuvant 50 μg/mL + tebuconazole 0.05 μg/mL vs tebuconazole alone
[24] = adjuvant 50 μg/mL + tebuconazole 0.10 μg/mL vs tebuconazole alone
[25] = adjuvant 50 μg/mL + tebuconazole 0.19 μg/mL vs tebuconazole alone
[26] = adjuvant 50 μg/mL + tebuconazole 0.38 μg/mL vs tebuconazole alone

Row | SMILES | Fold Change in Growth Inhibition [1, 3] | Fold Change in Growth Inhibition [1, 4] | Fold Change in Growth Inhibition [1, 5] | Fold Change in Growth Inhibition [1, 6] | Fold Change in Growth Inhibition [1, 7] | Fold Change in Growth Inhibition [1, 8] | Fold Change in Growth Inhibition [1, 9] | Fold Change in Growth Inhibition [1, 10] | Fold Change in Growth Inhibition [1, 11] | Fold Change in Growth Inhibition [1, 12] | Fold Change in Growth Inhibition [1, 13] | Fold Change in Growth Inhibition [1, 14] | Fold Change in Growth Inhibition [1, 15] | Fold Change in Growth Inhibition [1, 16] | Fold Change in Growth Inhibition [1, 17] | Fold Change in Growth Inhibition [1, 18] | Fold Change in Growth Inhibition [1, 19] | Fold Change in Growth Inhibition [1, 20] | Fold Change in Growth Inhibition [1, 21] | Fold Change in Growth Inhibition [1, 22] | further results
1 | CC1CCC2C(C)(C)C(O)CCC2(C)C12Cc1c(O)cc3c(c1O2)CN(C(Cc1ccccc1)C(=O)O)C3=O (stereo not drawn) [Phe (Ib), phenylspirodrimane (Ib)] | 3.59 | 1.11 | 1.47 | 1.55 | 22.22 | 2.83 | 2.17 | 1.03 | 4.25 | 1.56 | 1.08 | 1.19 | 7.94 | 1.67 | 1.83 | 1.00 | 17.87 | 1.67 | 1.62 | 1.57 | Fold Change in Growth Inhibition [1, 23]: 14.29; Fold Change in Growth Inhibition [1, 24]: 4.33; Fold Change in Growth Inhibition [1, 25]: 2.36; Fold Change in Growth Inhibition [1, 26]: 1.00; inherent fungicidal activity on their own [1]: did not demonstrate any inherent fungicidal activity; fungicidal activity compared to dimethomorph, prothioconazole, mancozeb, metalaxyl and pyrimethanil alone [1]: showed increased fungicidal activity; cytotoxicity against Vero cells [2]: did not exhibit any cytotoxicity
2 | CC1CCC2C(C)(C)C(O)CCC2(C)C12Cc1c(O)cc3c(c1O2)CN(CCCCC(C(=O)O)N1Cc2c(cc(O)c4c2OC2(C4)C(C)CCC4C(C)(C)C(O)CCC42C)C1=O)C3=O (stereo not drawn) [Sta A (IIa), stachybocin A] | 2.92 | 1.00 | 1.00 | 1.00 | 12.70 | 2.83 | 2.36 | 1.00 | 2.92 | 1.00 | 1.00 | 1.00 | 14.29 | 2.67 | 1.81 | 1.00 | 2.25 | 1.00 | 1.47 | 1.08 | Fold Change in Growth Inhibition [1, 23]: 12.70; Fold Change in Growth Inhibition [1, 24]: 2.17; Fold Change in Growth Inhibition [1, 25]: 1.36; Fold Change in Growth Inhibition [1, 26]: 1.00; inherent fungicidal activity on their own [1]: did not demonstrate any inherent fungicidal activity; fungicidal activity compared to dimethomorph, prothioconazole, mancozeb, metalaxyl and pyrimethanil alone [1]: showed increased fungicidal activity; cytotoxicity against Vero cells [2]: did not exhibit any cytotoxicity
